Reference: article PMC4263610, “Derivation of ligands for the complement C3a receptor from the C-terminus of C5a” (European Journal of Pharmacology, 2014)
Ends that are not written are not given here.

Experiments:
[1] = target: T1, human monocyte-derived macrophages (HMDM) (Homo sapiens, UniProt Q16581); test: xCELLigence cell impedance assay, agonist activity on HMDM; type: cell-based; conditions: for xCELLigence response profile: C3a and C5a at 100 nM; for EC50: xCELLigence impedance, dose-response, serum-free IMDM, 37 °C, n=3–5; for response in initial single dose screen: single dose of 8 μM, n=4–6, hit = P<0.001
T1 sequence (Q16581 1-482): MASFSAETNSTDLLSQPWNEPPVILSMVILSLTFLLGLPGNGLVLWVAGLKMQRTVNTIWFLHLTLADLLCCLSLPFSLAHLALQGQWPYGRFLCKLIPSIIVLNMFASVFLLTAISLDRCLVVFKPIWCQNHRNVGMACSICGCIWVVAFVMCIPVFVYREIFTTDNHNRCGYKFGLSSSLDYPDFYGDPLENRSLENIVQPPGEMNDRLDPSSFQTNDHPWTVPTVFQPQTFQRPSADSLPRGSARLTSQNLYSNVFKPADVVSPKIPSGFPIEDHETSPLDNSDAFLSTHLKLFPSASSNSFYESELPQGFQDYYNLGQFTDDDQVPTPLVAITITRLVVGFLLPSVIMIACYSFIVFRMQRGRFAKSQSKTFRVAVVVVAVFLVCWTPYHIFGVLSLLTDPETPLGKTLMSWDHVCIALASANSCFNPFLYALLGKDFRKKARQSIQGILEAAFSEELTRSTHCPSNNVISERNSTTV
Procedure: Human monocytes were isolated from blood donations to the Australian Red Cross Blood Service (Kelvin Grove, Queensland). The isolation of mononuclear cells was as described previously by [Halai and Cooper (2012)]. Briefly, the mononuclear cell layer was separated using density gradient centrifugation with Ficoll-Paque Plus (GE Healthcare). MACS magnetic beads (Miltenyi Biotec) were incubated with the cells for 15 min at 4 °C before passing through an LS column (Miltenyi Biotec) to select for the CD14+ cells. Selected monocytes were plated at a density of 1.5×10^7 in Iscove׳s Modified Dulbecco׳s Medium (IMDM) (Invitrogen Life Technologies) containing L-glutamine supplemented with 10% Fetal Bovine Serum (FBS), 50 IU/ml penicillin and 50 μg/ml streptomycin. Human macrophage colony-stimulating factor (M-CSF) (Peprotech) was added to media to allow cells to differentiate into human monocyte-derived macrophages (HMDM). Over the 7 day differentiation process, cells were incubated at 37 °C and 5% CO2.
(§1) HMDM were seeded overnight at 30,000 cells/well in 384-well E-Plates (Roche). Approximately 24 h later, HMDM media were exchanged for serum-free IMDM and equilibrated at 37 °C and 5% CO2 for 2 h prior to ligand addition. Ligands were prepared at a final DMSO concentration of 0.5% (or less) in serum-free IMDM. […] After agonist addition, measurements were taken continuously for ~1.5 h at 37 °C. The RTCA software was used for data analysis, with statistical analysis using GraphPad Prism 5.0c (GraphPAD Software Inc., San Diego, CA).

human C3a receptor = target: T2, human C3a receptor (Homo sapiens, UniProt Q16581); test: RBL-2H3 degranulation assay (β-hexosaminidase), agonist, human C3a receptor; type: cell-based; conditions: RBL-2H3 transfected with human C3a receptor, 100 µM peptide (Fig. 3 legend: 50 μM), 15 min, β-hexosaminidase secretion, relative to FLPLAR
T2 construct: expressed in transfected cells; host or cells: RBL-2H3 (rat basophilic leukemia) cells
T2 sequence (Q16581 1-482): T1 sequence (Q16581 1-482)
Procedure: RBL-2H3 cells transfected with either human C5a1 or human C3a receptor ([Cain and Monk, 2002]) were routinely cultured in Dulbecco׳s Modified Eagle׳s Medium, 10% (v/v) fetal calf serum, and 400 mg/l G-418 at 37 °C in 5% CO2. Degranulation was measured by assaying for β-hexosaminidase activity in the cell supernatant, as described previously ([Monk et al., 1994]). In agonist assays, degranulation was calculated as a percentage of maximal activity in response to 200 nM recombinant human C3a, human C5a ([Cain and Monk, 2002]), or 10 nM agonist hexapeptide, FLPLAR ([Scully et al., 2010]). […]
RBL-2H3 cells transfected with either human C5a1 or human C3a receptor ([Cain and Monk, 2002]) were used to confirm hits detected in HMDM, using degranulation as a read-out ([Monk et al., 1994]). In cells transfected with C5a1, very weak agonist activity was detected in two groups of peptides, although even at 100 µM (the maximal dose achievable in the presence of the DMSO, which has adverse effects >1%), the activation obtained was 5–10% of the maximum activation achieved by a high dose of C5a (Fig. 3, top panel). […]
Fig. 3 Agonist activity of peptides at human C5a1 and C3a receptors expressed in rat basophilic leukemia cells (RBL-2H3). […] Degranulation was measured as the secretion of β-hexosaminidase. […]

C3a receptor = C3a receptor (Homo sapiens, UniProt Q16581); test: xCELLigence, antagonism of peptide-evoked response by C3a receptor antagonist SB 290157 in HMDM; type: cell-based; conditions: n=3–5
Procedure: as §1

C5a receptors = conditions: ref Taylor and Fairlie, 2005; cited from earlier work
Source text: C3a receptor/C5a1 promiscuity is not unusual and has been previously observed for whole C3a and a synthetic peptide agonist ([Ames et al., 1996]) and a chimeric C5a with the C3a C-terminal pentapeptide ([Bautsch et al., 1992]). In fact, early efforts to create potent and selective antagonists of C5a1 led to only partial agonists ([Taylor and Fairlie, 2005]).

In the case of “C3a: complement fragment C3a, 77-residue protein, recombinant human [Peptide C3a]”, the xCELLigence response profile [1] is reported as “single peak profile”, the “cell index (intensity of the signal)” value ([1]; xCELLigence) is reported as 1.98 and the “time of signal peak after addition” value ([1]; xCELLigence) is reported as ~ 1 min.

In the case of Ac-RHYPLWR-OH [Peptide 31, Ac-RHYPLWR], the “activation of C3a receptor (degranulation)” value (human C3a receptor) is reported as “very strong activation”, the EC50 [1] is reported as 1100 nM and the “response in initial single dose screen” value ([1]; xCELLigence) is reported as “significant hits”.

In the case of `N=C(N)NCCC[C@H](NC(=O)COCC(c1ccccc1)c1ccccc1)C(=O)O` [SB 290157], the IC50 (C3a receptor; agonist peptide 20 at about its EC50, antagonist pre-incubated 1 h) is reported as 1.3 nM, the IC50 (C3a receptor; agonist peptide 31 at about its EC50, antagonist pre-incubated 1 h) is reported as 67 nM and the IC50 (C3a receptor; agonist peptide 47 at about its EC50, antagonist pre-incubated 1 h) is reported as 44 nM. The IC50 (C3a receptor; agonist peptide 49 at about its EC50, antagonist pre-incubated 1 h) was 15 nM and the IC50 (C3a receptor; agonist peptide 54 at about its EC50, antagonist pre-incubated 1 h) was 29 nM.

With Ac-RYPLWR-OH [Peptide 54, Ac-RYPLWR] the “activation of C3a receptor (degranulation)” value (human C3a receptor) was “very strong activation”, the EC50 [1] was 3000 nM and the “response in initial single dose screen” value ([1]; xCELLigence) was “significant hits”.

Ac-TIYRLWR [Peptide 49, Ac-TIYRLWR] gave an EC50 [1] of 17000 nM.

In the case of Ac-TLLRLWR [Peptide 48], the “outcome of full dose range retest” value ([1]; xCELLigence, full dose range) is reported as “a full dose response could not be obtained” and the “response in initial single dose screen” value ([1]; xCELLigence) is reported as “significant hits”.

In the case of “AcPhe[Lornithine-Pro-D-cyclohexylalanine-Trp-Arg] (sidechain bridge or staple) [PMX53, cyclic C5a1 antagonist]”, the receptor affinity (C5a receptors) is given as “low nanomolar range”.

With Ac-NNYNLWR-OH [Peptide 20, Ac-NNYNLWR] the EC50 [1] was 5800 nM and the “response in initial single dose screen” value ([1]; xCELLigence) was “significant hits”.

With Ac-RLYPLWR-OH [Peptide 47, Ac-RLYPLWR] the EC50 [1] was 1200 nM and the “response in initial single dose screen” value ([1]; xCELLigence) was “significant hits”.

B1: C5a: complement fragment C5a, 74-residue protein, human (protein, UniProt P01031 678-751, looked up)
C5a anaphylatoxin: TLQKKIEEIAAKYKHSVVKKCCYDGACVNNDETCEQRAARISLGPRCIKAFTECCVVASQLRANISHKDMQLGR
modifications: C5a anaphylatoxin
notes: complement fragment C5a, 74-residue protein, human
For B1, the xCELLigence response profile [1] was “two-peak profile”, the “cell index (intensity of the signal)” value ([1]; xCELLigence) was 4.53 and the “time of signal peak after addition” value ([1]; xCELLigence) was ~ 4 min.
